# Entries after “also recorded” stand apart in the source; their conditions may differ.
# Key:
# [1] = tested on: purified T cells from mouse spleen; assay: Immune cell allergy model: RT-qPCR of allergy-associated genes in OVA-stimulated purified T cells from mouse spleen; format: cell-based; settings: HMO preparation at final concentration 100 μg/mL, versus sensitization group
# Description: (§1) In a fourth aspect, the present disclosure also provides a use of the active HMO preparation in construction of an immune cell allergy model, where the construction method of the immune cell allergy model includes the following steps: • (1) taking a cryopreserved mouse bone marrow-derived dendritic cell (DC) line DC2.4, and subjecting the cryopreserved mouse bone marrow-derived DC line DC2.4 to recovery, activation, and subculture in an incubator (37° C. and 5% CO2); • (2) sacrificing a Balb/c female mouse through cervical dislocation, collecting a spleen in a clean bench, subjecting the spleen to grinding, red blood cell lysis, washing, and re-suspension with a cell culture medium to obtain a mouse spleen single-cell suspension, and purifying T cells from the spleen single-cell suspension through magnetic bead separation; • (3) inoculating the cells in a 12-well cell culture plate, dividing the cells into a control group, a sensitization group, and an intervention group with 3 biological replicates for each group, and culturing the cells in an incubator (37° C. and 5% CO2); and • (4) extracting total RNA from cells, and detecting an RNA concentration with a nucleoprotein concentration meter for follow-up experiments; and reverse-transcribing the extracted RNA immediately into cDNA, conducting quantitative reverse transcription polymerase chain reaction (RT-qPCR), and with β-actin as an internal reference gene, calculating a relative expression level of a target gene by a 2^−ΔΔCt method.
# (§2) In the present disclosure, an effect of the preparation is verified. When the immune cell allergy model is constructed, a sensitinogen used is ovalbumin (OVA), and relative expression levels of genes for a pro-inflammatory factor OX40L, an anti-inflammatory factor IL-10, a Th2-type cytokine IL-5, a Th1-type associated cytokine T-bet, a Th2-type cytokine IL-4, and a Th1-type associated cytokine IFN-γ are calculated.
# (2) An SPF grade Balb/c female mouse was sacrificed through cervical dislocation and dissected under sterile conditions, a spleen tissue was collected and subjected to grinding, red blood cell lysis, washing, and re-suspension with an RPMI-1640 medium to prepare a mouse spleen single-cell suspension, and T cells in the mouse spleen were extracted through magnetic bead separation.
# (3) The cells were divided into 4 groups with 3 replicates for each group, including a control group, a sensitization group, an HMO preparation intervention group 1 (Example 1), and an HMO preparation intervention group 2 (Example 2). […]
# (§3) (4) Total RNA was extracted from cells and reverse-transcribed into cDNA, and an expression level of an allergy-associated gene in the cells was detected by RT-qPCR. […]
# [2] = tested on: food allergy mice; assay: Food allergy mice (OVA sensitization), intragastric HMO preparation, RT-qPCR of spleen tissue; format: in vivo, mouse; settings: OVA-sensitized mice, intragastric administration, versus sensitized mice
# Description: The anti-allergy active HMO preparations of LNFP-I and 2′-FL were intragastrically administered to food allergy mice to alleviate food allergy symptoms.
# (1) Mice were intragastrically administered with OVA for sensitization, and then intervened with an HMO preparation intervention group 1 (Example 1) and an HMO preparation intervention group 2 (Example 2), respectively.
# (2) The mice were sacrificed through cervical dislocation and dissected under sterile conditions, and spleen tissues were collected and stored in liquid nitrogen.
# (3) Total RNA was extracted from each mouse spleen tissue and reverse-transcribed into cDNA, and an expression level of an allergy-associated gene was detected by RT-qPCR.
# The anti-allergy active HMO preparations were intragastrically administered in a mass ratio of 1:3 to food allergy mice to alleviate food allergy symptoms.
# (1) Mice were intragastrically administered with OVA for sensitization, and then intervened with the anti-allergy active HMO preparation prepared in Example 5 at a mass ratio of 1:3.
# [3] = tested on: mouse bone marrow-derived DC line DC2.4; assay: Immune cell allergy model: RT-qPCR of allergy-associated genes in OVA-stimulated DC2.4 cells; format: cell-based; settings: HMO preparation at final concentration 100 μg/mL, versus sensitization group
# Description: as §1, §2
# (1) A cryopreserved mouse bone marrow-derived DC line DC2.4 was taken and subjected to recovery, activation, and subculture, and cells of generation 4 to 6 with a strong activity were selected for the experiment.
# (3) The cells were divided into 4 groups with 3 replicates for each group, including a control group, a sensitization group, an HMO preparation intervention group 1 (Example 1), and an HMO preparation intervention group 2 (Example 2). In the HMO preparation intervention groups, an HMO preparation was added at a final concentration of 100 μg/mL to cells, and the cells were cultured in an incubator (37° C. and 5% CO2).
# as §3
Substance,"expression level of the gene for Th1-type associated cytokine T-bet (relative mRNA, RT-qPCR) [1]","expression level of the gene for Th2-type cytokine IL-5 (relative mRNA, RT-qPCR) [1]","expression level of the gene for Th1-type associated cytokine IFN-γ in spleen (relative mRNA, RT-qPCR) [2]","expression level of the gene for Th2-type cytokine IL-4 in spleen (relative mRNA, RT-qPCR) [2]","expression level of the gene for anti-inflammatory factor IL-10 (relative mRNA, RT-qPCR) [3]","expression level of the gene for pro-inflammatory factor OX40L (relative mRNA, RT-qPCR) [3]"
2′-fucosyllactose [intervention group 2],significantly stimulate an expression level of the gene for T-bet to increase,decreases to some degree,greatly stimulate an expression level of the gene for IFN-γ to further increase,decrease significantly,significantly stimulate an expression level of a gene for IL-10 to further increase,can be reduced
lacto-N-fucopentaose I [intervention group 1],significantly stimulate an expression level of the gene for T-bet to increase; also recorded: increases more significantly than an expression level of the gene for T-bet in the intervention group 2,decreases slightly,significantly stimulate an expression level of the gene for IFN-γ to further increase,does not change significantly,significantly stimulate an expression level of a gene for IL-10 to further increase; also recorded: increases more than an expression level of the gene for IL-10 in the intervention group 2,can be reduced
